The results in this text go back to the supplement of paper PMC11208160.
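Note: IS621 bridge recombinase in Escherichia coli cells against a fixed T5 target plasmid.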

The series is described as follows: recombinant UMI read abundance after kanamycin selection (control-corrected) (log10(CPM+1)); higher = more efficient recombination; extreme values may be limits of the assay; sequences stand for … in AGTGCAGAGAAAATCGGCCAGTTTTCTCTGCCTGCAGTCCGCATGCCGTGGGACCCCTTGGGTTCTAACCTGTTGCCTAGATTTATGCAGCGGACTGCCTTTCTCCCAAAGTGATAAACCGG…AGGTTGGTTTCACT; site = the 11-nt donor. Put shortly:
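Values, expressed as log10(CPM+1), derive from recombinant UMI counts converted to CPM, averaged across replicates and scaled by control-derived factors. Plating was with IPTG (0.07 mM) plus kanamycin or unselected, two replicates each. The screen pooled donor and donor-binding-loop pairs for the IS621 bridge recombinase in Escherichia coli.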
For “AGCCTAGCATGGACCGGTTTTCCCGGTAATCCGTATTTGTC (site AGCCTAGCTAA)”, the “recombinant UMI read abundance (log10)” value was determined as 0.199.

Regarding “AGCCTAGCATGGACCGGTTTTCCCGGTAATCCGTATTTGTC (site AGCCTAGCTCA)”, the “recombinant UMI read abundance (log10)” value turned out to be 0.0312.

On to “AGCCTAGCATGGACCGGTTTTCCCGGTAATCCGTATTTGTC (site AGCCTAGCTGA)”, for which the “recombinant UMI read abundance (log10)” value stood at 0.

Take “AGCCTAGCATGGACCGGTTTTCCCGGTAATCCGTATTTGTC (site AGCCTAGCTTA)”: the “recombinant UMI read abundance (log10)” value worked out at 0.0185.

On to “AGCCTATCATGGACCGGTTTTCCCGGTAATCCGTATTTGAC (site AGCCTATCTGT)”, for which the “recombinant UMI read abundance (log10)” value came to 0.685.

For the sequence “AGCCTATCATGGACCGGTTTTCCCGGTAATCCGTATTTGAC (site AGCCTCTCTGT)”, the “recombinant UMI read abundance (log10)” value amounted to 0.

As for “AGCCTATCATGGACCGGTTTTCCCGGTAATCCGTATTTGAC (site AGCCTGTCTGT)”, the “recombinant UMI read abundance (log10)” value is 0.

In the case of “AGCCTATCATGGACCGGTTTTCCCGGTAATCCGTATTTGAC (site AGCCTTTCTGT)”, the “recombinant UMI read abundance (log10)” value was 0.

Regarding “AGCCTTTCATGGACCGGTTTTCCCGGTAATCCGTATTTGAT (site AGCCTTTCTAT)”, the “recombinant UMI read abundance (log10)” value was 0.

“AGCCTTTCATGGACCGGTTTTCCCGGTAATCCGTATTTGAT (site AGCCTTTCTCT)”: the “recombinant UMI read abundance (log10)” value was determined as 0.

Turning to “AGCCTTTCATGGACCGGTTTTCCCGGTAATCCGTATTTGAT (site AGCCTTTCTGT)”, the “recombinant UMI read abundance (log10)” value worked out at 0.

As for “AGCCTTTCATGGACCGGTTTTCCCGGTAATCCGTATTTGAT (site AGCCTTTCTTT)”, the “recombinant UMI read abundance (log10)” value was determined as 0.

In the case of “AGCGCGACATGGACCGGTTTTCCCGGTAATCCGTATTTGTG (site AGCGCGACTCA)”, the “recombinant UMI read abundance (log10)” value came to 0.829.

“AGCGCTCCATGGACCGGTTTTCCCGGTAATCCGTATTTGCC (site AGCGCTCCTGG)”: the “recombinant UMI read abundance (log10)” value turned out to be 0.

On to “AGCGGCTCATGGACCGGTTTTCCCGGTAATCCGTATTTGGG (site AGCGGCTCTCC)”, for which the “recombinant UMI read abundance (log10)” value came out at 0.204.

Take “AGCTAAGCATGGACCGGTTTTCCCGGTAATCCGTATTTGGG (site AGCTAAGCTCC)”: the “recombinant UMI read abundance (log10)” value came to 0.00725.

Take “AGCTAAGCATGGACCGGTTTTCCCGGTAATCCGTATTTGGG (site AGCTCAGCTCC)”: the “recombinant UMI read abundance (log10)” value turned out to be 0.0056.

As for “AGCTAAGCATGGACCGGTTTTCCCGGTAATCCGTATTTGGG (site AGCTGAGCTCC)”, the “recombinant UMI read abundance (log10)” value stood at 0.0394.

Take “AGCTAAGCATGGACCGGTTTTCCCGGTAATCCGTATTTGGG (site AGCTTAGCTCC)”: the “recombinant UMI read abundance (log10)” value is 0.117.

Turning to “AGCTACGCATGGACCGGTTTTCCCGGTAATCCGTATTTGAA (site AGCTACGCTTT)”, the “recombinant UMI read abundance (log10)” value amounted to 1.7.

In the case of “AGCTAGCCATGGACCGGTTTTCCCGGTAATCCGTATTTGGA (site AGCTAGCCTTC)”, the “recombinant UMI read abundance (log10)” value stood at 0.00495.

Consider “AGCTAGGCATGGACCGGTTTTCCCGGTAATCCGTATTTGGT (site AGCTAGGCTAC)”, for which the “recombinant UMI read abundance (log10)” value came to 0.659.

“AGCTAGGCATGGACCGGTTTTCCCGGTAATCCGTATTTGGT (site CGCTAGGCTAC)”: the “recombinant UMI read abundance (log10)” value was found to be 0.00222.

Regarding “AGCTAGGCATGGACCGGTTTTCCCGGTAATCCGTATTTGGT (site GGCTAGGCTAC)”, the “recombinant UMI read abundance (log10)” value was 0.0154.

On to “AGCTAGGCATGGACCGGTTTTCCCGGTAATCCGTATTTGGT (site TGCTAGGCTAC)”, for which the “recombinant UMI read abundance (log10)” value was 0.0219.

“AGCTCACCATGGACCGGTTTTCCCGGTAATCCGTATTTGGG (site AGCTCAACTCC)”: the “recombinant UMI read abundance (log10)” value was found to be 0.0175.

“AGCTCACCATGGACCGGTTTTCCCGGTAATCCGTATTTGGG (site AGCTCACCTCC)”: the “recombinant UMI read abundance (log10)” value worked out at 0.0182.

Regarding “AGCTCACCATGGACCGGTTTTCCCGGTAATCCGTATTTGGG (site AGCTCAGCTCC)”, the “recombinant UMI read abundance (log10)” value was 0.0165.

“AGCTCACCATGGACCGGTTTTCCCGGTAATCCGTATTTGGG (site AGCTCATCTCC)”: the “recombinant UMI read abundance (log10)” value worked out at 0.

In the case of “AGCTCAGCATGGACCGGTTTTCCCGGTAATCCGTATTTGAG (site AGCTCAGCTCA)”, the “recombinant UMI read abundance (log10)” value was 0.0132.

On to “AGCTCAGCATGGACCGGTTTTCCCGGTAATCCGTATTTGAG (site AGCTCAGCTCC)”, for which the “recombinant UMI read abundance (log10)” value was 0.026.

With “AGCTCAGCATGGACCGGTTTTCCCGGTAATCCGTATTTGAG (site AGCTCAGCTCG)”, the “recombinant UMI read abundance (log10)” value was determined as 0.

As to “AGCTCAGCATGGACCGGTTTTCCCGGTAATCCGTATTTGAG (site AGCTCAGCTCT)”, the “recombinant UMI read abundance (log10)” value was 1.33.

In the case of “AGCTCAGCATGGACCGGTTTTCCCGGTAATCCGTATTTGGA (site AGCTCAGCTAC)”, the “recombinant UMI read abundance (log10)” value amounted to 0.00904.

For the sequence “AGCTCAGCATGGACCGGTTTTCCCGGTAATCCGTATTTGGA (site AGCTCAGCTCC)”, the “recombinant UMI read abundance (log10)” value amounted to 0.264.

In the case of “AGCTCAGCATGGACCGGTTTTCCCGGTAATCCGTATTTGGA (site AGCTCAGCTGC)”, the “recombinant UMI read abundance (log10)” value came out at 0.

As for “AGCTCAGCATGGACCGGTTTTCCCGGTAATCCGTATTTGGA (site AGCTCAGCTTC)”, the “recombinant UMI read abundance (log10)” value was 1.03.

Take “AGCTCAGCATGGACCGGTTTTCCCGGTAATCCGTATTTGTG (site AGCTCAGCTCA)”: the “recombinant UMI read abundance (log10)” value worked out at 0.506.

Turning to “AGCTCAGCATGGACCGGTTTTCCCGGTAATCCGTATTTGTG (site AGCTCAGCTCC)”, the “recombinant UMI read abundance (log10)” value was 0.00732.

Turning to “AGCTCAGCATGGACCGGTTTTCCCGGTAATCCGTATTTGTG (site AGCTCAGCTCG)”, the “recombinant UMI read abundance (log10)” value turned out to be 0.

As to “AGCTCAGCATGGACCGGTTTTCCCGGTAATCCGTATTTGTG (site AGCTCAGCTCT)”, the “recombinant UMI read abundance (log10)” value was 0.362.

On to “AGCTCGACATGGACCGGTTTTCCCGGTAATCCGTATTTGGC (site AGCTCGACTGC)”, for which the “recombinant UMI read abundance (log10)” value is 1.31.

Regarding “AGCTCTGCATGGACCGGTTTTCCCGGTAATCCGTATTTGGG (site AGCTCAGCTCC)”, the “recombinant UMI read abundance (log10)” value was 0.0199.

In the case of “AGCTCTGCATGGACCGGTTTTCCCGGTAATCCGTATTTGGG (site AGCTCCGCTCC)”, the “recombinant UMI read abundance (log10)” value was found to be 0.0101.

“AGCTCTGCATGGACCGGTTTTCCCGGTAATCCGTATTTGGG (site AGCTCGGCTCC)”: the “recombinant UMI read abundance (log10)” value was 0.

“AGCTCTGCATGGACCGGTTTTCCCGGTAATCCGTATTTGGG (site AGCTCTGCTCC)”: the “recombinant UMI read abundance (log10)” value came out at 0.25.

As to “AGCTTAGCATGGACCGGTTTTCCCGGTAATCCGTATTTGTT (site AGCATAGCTAA)”, the “recombinant UMI read abundance (log10)” value amounted to 0.00999.

On to “AGCTTAGCATGGACCGGTTTTCCCGGTAATCCGTATTTGTT (site AGCCTAGCTAA)”, for which the “recombinant UMI read abundance (log10)” value turned out to be 0.261.

With “AGCTTAGCATGGACCGGTTTTCCCGGTAATCCGTATTTGTT (site AGCGTAGCTAA)”, the “recombinant UMI read abundance (log10)” value turned out to be 0.0147.

In the case of “AGCTTAGCATGGACCGGTTTTCCCGGTAATCCGTATTTGTT (site AGCTTAGCTAA)”, the “recombinant UMI read abundance (log10)” value was determined as 0.0106.

For the sequence “AGCTTCCCATGGACCGGTTTTCCCGGTAATCCGTATTTGGG (site AGCTTCCCTCC)”, the “recombinant UMI read abundance (log10)” value was 0.0229.

As for “AGCTTGCCATGGACCGGTTTTCCCGGTAATCCGTATTTGAT (site AGCTTGCCTAT)”, the “recombinant UMI read abundance (log10)” value is 0.0115.
